biological target: T1, PDE2 (Bos taurus, UniProt P14099); assay: Radioenzymatic phosphodiesterase assay: PDE2 inhibition; assay type: biochemical, bovine; settings: Table 1; 10 μM test compound; read-out: PDE2 percentage of inhibition at 10 μM
T1 sequence (P14099 1-921): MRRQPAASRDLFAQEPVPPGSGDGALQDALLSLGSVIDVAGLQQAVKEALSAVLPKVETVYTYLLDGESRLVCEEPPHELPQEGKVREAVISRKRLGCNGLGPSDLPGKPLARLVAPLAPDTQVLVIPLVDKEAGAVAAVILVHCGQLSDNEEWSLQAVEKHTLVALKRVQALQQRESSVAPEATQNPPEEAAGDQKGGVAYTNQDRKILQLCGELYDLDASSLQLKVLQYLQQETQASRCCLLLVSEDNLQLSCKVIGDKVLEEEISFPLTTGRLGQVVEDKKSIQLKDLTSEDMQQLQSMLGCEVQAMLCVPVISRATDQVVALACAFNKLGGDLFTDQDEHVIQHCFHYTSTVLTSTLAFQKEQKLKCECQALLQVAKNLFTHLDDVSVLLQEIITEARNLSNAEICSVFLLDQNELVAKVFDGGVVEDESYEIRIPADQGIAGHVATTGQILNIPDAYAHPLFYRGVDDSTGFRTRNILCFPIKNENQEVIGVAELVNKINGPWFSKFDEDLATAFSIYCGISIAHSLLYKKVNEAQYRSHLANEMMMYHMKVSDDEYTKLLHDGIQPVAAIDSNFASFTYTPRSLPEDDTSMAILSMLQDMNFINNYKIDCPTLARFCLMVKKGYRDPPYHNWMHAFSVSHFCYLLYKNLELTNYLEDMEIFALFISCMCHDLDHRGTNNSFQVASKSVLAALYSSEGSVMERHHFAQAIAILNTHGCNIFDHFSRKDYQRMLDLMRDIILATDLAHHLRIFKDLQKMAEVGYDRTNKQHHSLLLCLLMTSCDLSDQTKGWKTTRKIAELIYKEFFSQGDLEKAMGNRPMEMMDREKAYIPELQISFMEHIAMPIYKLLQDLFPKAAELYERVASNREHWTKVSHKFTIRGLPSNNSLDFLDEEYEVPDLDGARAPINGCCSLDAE
Protocol: Nucleoside radioactivity was determined by liquid scintillation.

SMILES	inhibition at 10 µM
CN1C(=O)CN=C(c2cccc(C(N)=O)c2)c2cc(-c3ccccc3Oc3ccccc3)ccc21 [Example 91, 3-[1-Methyl-2-oxo-7-(2-phenoxy-phenyl)-2,3-dihydro-1H-benzo[e][1,4]diazepin-5-yl]-benzamide]	96%
COc1cc2c(cc1-c1ccccc1)C(c1ccccc1Br)=NCC(=O)N2 [Example 102, 5-(2-Bromo-phenyl)-8-methoxy-7-phenyl-1,3-dihydro-benzo[e][1,4]diazepin-2-one]	48%
COCCCc1cccc(C2=NCC(=O)N(C)c3cc(OC)c(-c4ccccc4)cc32)c1 [Example 103, 8-Methoxy-5-[3-(3-methoxy-propyl)-phenyl]-1-methyl-7-phenyl-1,3-dihydro-benzo[e][1,4]diazepin-2-one]	96%
COc1cc2c(cc1-c1ccccc1)C(c1ccccc1Br)=NCC(=O)N2C [Example 104, 5-(2-Bromo-phenyl)-8-methoxy-1-methyl-7-phenyl-1,3-dihydro-benzo[e][1,4]diazepin-2-one]	71%

same assay, conditions: read-out: PDE2 percentage of inhibition at 10 μM

SMILES	inhibition at 10 µM
CN1C(=O)CN=C(c2cccc(C#N)c2)c2cc(-c3ccccc3Oc3ccccc3)ccc21 [Example 88, 3-[1-Methyl-2-oxo-7-(2-phenoxy-phenyl)-2,3-dihydro-1H-benzo[e][1,4]diazepin-5-yl]-benzonitrile]	89%
COc1cc2c(cc1-c1c(OC)cccc1OC)C(c1cccc(C#N)c1)=NCC(=O)N2C [Example 89, 3-[7-(2,6-Dimethoxy-phenyl)-8-methoxy-1-methyl-2-oxo-2,3-dihydro-1H-benzo[e][1,4]diazepin-5-yl]-benzonitrile]	99%
COc1cc2c(cc1-c1ccccc1Oc1ccccc1)C(c1cccc(C#N)c1)=NCC(=O)N2C [Example 90, 3-[8-Methoxy-1-methyl-2-oxo-7-(2-phenoxy-phenyl)-2,3-dihydro-1H-benzo[e][1,4]diazepin-5-yl]-benzonitrile]	98%
COc1cc2c(cc1-c1ccccc1)C(c1cccc(CCCCc3ccccc3)c1)=NCC(=O)N2C [Example 94, 8-Methoxy-1-methyl-7-phenyl-5-[3-(4-phenyl-butyl)-phenyl]-1,3-dihydro-benzo[e][1,4]diazepin-2-one]	79%
COCC#Cc1cccc(C2=NCC(=O)N(C)c3cc(OC)c(-c4ccccc4)cc32)c1 [Example 95, 8-Methoxy-5-[3-(3-methoxy-prop-1-ynyl)-phenyl]-1-methyl-7-phenyl-1,3-dihydro-benzo[e][1,4]diazepin-2-one]	89%
COc1cc2c(cc1-c1ccccc1)C(c1ccc(C#CCNC(=O)OC(C)(C)C)cc1)=NCC(=O)N2C [Example 96, {3-[4-(8-Methoxy-1-methyl-2-oxo-7-phenyl-2,3-dihydro-1H-benzo[e][1,4]diazepin-5-yl)-phenyl]-prop-2-ynyl}-carbamic acid tert-butyl ester]	21%
COc1cc2c(cc1-c1ccccc1)C(c1ccc(C#Cc3ccccc3)cc1)=NCC(=O)N2C [Example 97, 8-Methoxy-1-methyl-7-phenyl-5-(4-phenylethynyl-phenyl)-1,3-dihydro-benzo[e][1,4]diazepin-2-one]	45%
COCC#Cc1ccc(C2=NCC(=O)N(C)c3cc(OC)c(-c4ccccc4)cc32)cc1 [Example 98, 8-Methoxy-5-[4-(3-methoxy-prop-1-ynyl)-phenyl]-1-methyl-7-phenyl-1,3-dihydro-benzo[e][1,4]diazepin-2-one]	80%
COc1cccc(OC)c1-c1ccc2c(c1)C(c1ccc(Cl)c(Cl)c1)=NCC(=O)N2C [Example 99, 5-(3,4-Dichloro-phenyl)-7-(2,6-dimethoxy-phenyl)-1-methyl-1,3-dihydro-benzo[e][1,4]diazepin-2-one]	98%
COc1ccc(C2=NCC(=O)N(C)c3ccc(-c4c(OC)cccc4OC)cc32)cc1OC [Example 101, 5-(3,4-Dimethoxy-phenyl)-7-(2,6-dimethoxy-phenyl)-1-methyl-1,3-dihydro-benzo[e][1,4]diazepin-2-one]	99%

— patent US7410963B2, “Benzo-1,4-diazepin-2-one derivatives as phosphodiesterase PDE2 inhibitors, preparation and therapeutic use thereof” (VIA Pharmaceuticals, Inc., priority 2003, dated 2008)
